Patent publication US10562891B2, “Quinazolinones as PARP14 inhibitors” (Ribon Therapeutics Inc., priority 2017, dated 2020)
pIC50: −log10 of the molar value. Where a name gives a salt, the structure may show the parent alone.

The compounds below were run against catalytic domain of human PARP14 (Homo sapiens (Human), UniProt Q460N5) (assay: Enzymatic assay for inhibition of PARP14 (DELFIA, auto-modification with biotin-NAD)). Details: auto-modification of PARP14 by biotin-NAD, 50 nM PARP14, 3 μM biotin-NAD.
Chain of catalytic domain of human PARP14 (Q460N5 1611-1801): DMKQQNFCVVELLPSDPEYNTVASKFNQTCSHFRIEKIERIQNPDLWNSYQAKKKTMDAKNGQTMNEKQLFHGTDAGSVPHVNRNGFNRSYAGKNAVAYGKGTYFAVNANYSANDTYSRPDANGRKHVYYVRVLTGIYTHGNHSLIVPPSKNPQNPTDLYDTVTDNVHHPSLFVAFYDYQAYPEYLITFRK
Assay type: biochemical
Procedure, shortened: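 DELFIA auto-modification read-out: europium-streptavidin bound to biotin-NAD incorporated onto nickel-captured His-TEV PARP14 catalytic domain. Compound preincubated 30 min, then 50 nM enzyme with 3 μM biotin-NAD reacted 3 h, all at 25 °C, pH 8, then NAD quench. Percent inhibition normalized to rucaparib/DMSO wells, fitted (4- or 3-parameter) for IC50.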

| SMILES | pIC50 |
| --- | --- |
| Cc1cccc(CN2CCC(SCc3nc4c(C)cccc4c(=O)[nH]3)CC2)n1 [Example 145, 8-Methyl-2-(((1-((6-methylpyridin-2-yl)methyl)piperidin-4-yl)thio)methyl)quinazolin-4(3H)-one bistrifluoroacetate] | > 6.00 |
| Cc1cccnc1CN1CCC(SCc2nc3c(C)cccc3c(=O)[nH]2)CC1 [Example 146, 8-Methyl-2-(((1-((3-methylpyridin-2-yl)methyl)piperidin-4-yl)thio)methyl)quinazolin-4(3H)-one bistrifluoroacetate] | > 6.00 |
| Cc1cccc2c(=O)[nH]c(CSC3CCN(CCc4ccccc4)CC3)nc12 [Example 147, 8-Methyl-2-(((1-phenethylpiperidin-4-yl)thio)methyl)quinazolin-4(3H)-one trifluoroacetate] | > 6.00 |
| Cc1cccc2c(=O)[nH]c(CSC3CCN(Cc4ccc5cnn(C)c5c4)CC3)nc12 [Example 148, 8-Methyl-2-(((1-((1-methyl-1H-indazol-6-yl)methyl)piperidin-4-yl)thio)methyl)quinazolin-4(3H)-one trifluoroacetate] | > 6.00 |
| Cc1n[nH]cc1CN1CCC(SCc2nc3c(C)cccc3c(=O)[nH]2)CC1 [Example 149, 8-Methyl-2-(((1-((3-methyl-1H-pyrazol-4-yl)methyl)piperidin-4-yl)thio)methyl)quinazolin-4(3H)-one trifluoroacetate] | 5.00 to 6.00 |
| CC(=O)Nc1cccc(CN2CCC(SCc3nc4c(C)cccc4c(=O)[nH]3)CC2)c1 [Example 150, N-(3-((4-(((8-Methyl-4-oxo-3,4-dihydroquinazolin-2-yl)methyl)thio)piperidin-1-yl)methyl)phenyl)acetamide trifluoroacetate] | 5.00 to 6.00 |
| Cc1cccc2c(=O)[nH]c(CSC3CCN(Cc4c[nH]c5ccncc45)CC3)nc12 [Example 151, 2-(((1-((1H-Pyrrolo[3,2-c]pyridin-3-yl)methyl)piperidin-4-yl)thio)methyl)-8-methylquinazolin-4(3H)-one bistrifluoroacetate] | > 6.00 |
| Cc1cccc2c(=O)[nH]c(CSC3CCN(Cc4cnc5ccccn45)CC3)nc12 [Example 152, 2-(((1-(Imidazo[1,2-a]pyridin-3-ylmethyl)piperidin-4-yl)thio)methyl)-8-methylquinazolin-4(3H)-one trifluoroacetate] | > 6.00 |
| Cc1cccc2c(=O)[nH]c(CSC3CCN(Cc4cncn4Cc4ccccc4)CC3)nc12 [Example 153, 2-(((1-((1-Benzyl-1H-imidazol-5-yl)methyl)piperidin-4-yl)thio)methyl)-8-methylquinazolin-4(3H)-one trifluoroacetate] | > 6.00 |
| Cc1cccc2c(=O)[nH]c(CSC3CCN(Cc4cnn(Cc5ccccc5)c4)CC3)nc12 [Example 154, 2-(((1-((1-Benzyl-1H-pyrazol-4-yl)methyl)piperidin-4-yl)thio)methyl)-8-methylquinazolin-4(3H)-one trifluoroacetate] | > 6.00 |
| Cc1cccc2c(=O)[nH]c(CSC3CCN(Cc4ccccc4OCC#N)CC3)nc12 [Example 155, 2-(2-((4-(((8-Methyl-4-oxo-3,4-dihydroquinazolin-2-yl)methyl)thio)piperidin-1-yl)methyl)phenoxy)acetonitrile trifluoroacetate] | > 6.00 |
| Cc1cccc2c(=O)[nH]c(CSC3CCN(Cc4ccc5c(c4)NC(=O)C5)CC3)nc12 [Example 156, 8-Methyl-2-(((1-((2-oxoindolin-6-yl)methyl)piperidin-4-yl)thio)methyl)quinazolin-4(3H)-one trifluoroacetate] | 5.00 to 6.00 |
| COc1ccc(CN2CCC(SCc3nc4c(C)cccc4c(=O)[nH]3)CC2)nc1 [Example 157, 2-(((1-((5-Methoxypyridin-2-yl)methyl)piperidin-4-yl)thio)methyl)-8-methylquinazolin-4(3H)-one bistrifluoroacetate] | > 6.00 |
| Cc1cccc2c(=O)[nH]c(CSC3CCN(Cc4ccc5c(c4)OCCN5C)CC3)nc12 [Example 158, 8-Methyl-2-(((1-((4-methyl-3,4-dihydro-2H-benzo[b][1,4]oxazin-7-yl)methyl)piperidin-4-yl)thio)methyl)quinazolin-4(3H)-one trifluoroacetate] | 5.00 to 6.00 |
| Cc1cccc2c(=O)[nH]c(CSC3CCN(C[C@H](O)CO)CC3)nc12 [Example 159, (S)-2-(((1-(2,3-Dihydroxypropyl)piperidin-4-yl)thio)methyl)-8-methyl quinazolin-4(3H)-one Trifluoroacetate] | 5.00 to 6.00 |
| Cc1cccc2c(=O)[nH]c(CSC3CCN(C[C@@H](O)CO)CC3)nc12 [Example 160, (R)-2-(((1-(2,3-Dihydroxypropyl)piperidin-4-yl)thio)methyl)-8-methyl quinazolin-4(3H)-one Trifluoroacetate] | 5.00 to 6.00 |
| Cc1cccc2c(=O)[nH]c(CSC3CCN(C[C@@H]4CCCN4)CC3)nc12 [Example 161, (S)-8-Methyl-2-(((1-(pyrrolidin-2-ylmethyl)piperidin-4-yl)thio)methyl) quinazolin-4(3H)-one Hydrochloride] | 5.00 to 6.00 |
| Cc1cccc2c(=O)[nH]c(CSC3CCN(CCO)CC3)nc12 [Example 162, 2-(((1-(2-Hydroxyethyl)piperidin-4-yl)thio)methyl)-8-methylquinazolin-4(3H)-one] | > 6.00 |

| SMILES | pIC50 |
| --- | --- |
| Cc1cccc2c(=O)[nH]c(CSC3CCN(CCN)CC3)nc12 [Example 163, 2-(((1-(2-Aminoethyl)piperidin-4-yl)thio)methyl)-8-methylquinazolin-4(3H)-one dihydrochloride] | 5.00 to 6.00 |
| Cc1cccc2c(=O)[nH]c(CSC3CCN(CCNC(=O)c4ccccn4)CC3)nc12 [Example 164, N-(2-(4-(((8-Methyl-4-oxo-3,4-dihydroquinazolin-2-yl)methyl)thio)piperidin-1-yl)ethyl)picolinamide] | 5.00 to 6.00 |
| Cc1cccc2c(=O)[nH]c(CSC3CCN(CCCN)CC3)nc12 [Example 165, 2-(((1-(3-Aminopropyl)piperidin-4-yl)thio)methyl)-8-methylquinazolin-4(3H)-one dihydrochloride] | > 6.00 |
| Cc1cccc2c(=O)[nH]c(CSC3CCN(C(=O)CN)CC3)nc12 [Example 166, 2-(((1-Glycylpiperidin-4-yl)thio)methyl)-8-methylquinazolin-4(3H)-one Hydrochloride] | > 6.00 |
| Cc1cccc2c(=O)[nH]c(CSC3CCN(C(=O)CCN)CC3)nc12 [Example 167, 2-(((1-(3-Aminopropanoyl)piperidin-4-yl)thio)methyl)-8-methylquinazolin-4(3H)-one Hydrochloride] | 5.00 to 6.00 |
| Cc1cccc2c(=O)[nH]c(CSC3CCN(C(=O)CCN(C)C)CC3)nc12 [Example 168, 2-(((1-(3-(Dimethylamino)propanoyl)piperidin-4-yl)thio)methyl)-8-methyl quinazolin-4(3H)-one] | 5.00 to 6.00 |
| Cc1cccc2c(=O)[nH]c(CSC3CCN(C(=O)[C@H](N)CCCNC(=N)N)CC3)nc12 [Example 169, (R)-1-(4-Amino-5-(4-(((8-methyl-4-oxo-3,4-dihydroquinazolin-2-yl)methyl)thio)piperidin-1-yl)-5-oxopentyl)guanidine Trihydrochloride] | > 6.00 |
| Cc1cccc2c(=O)[nH]c(CSC3CCN(C(=O)[C@@H](N)CCCNC(=N)N)CC3)nc12 [Example 170, (S)-1-(4-Amino-5-(4-(((8-methyl-4-oxo-3,4-dihydroquinazolin-2-yl)methyl)thio)piperidin-1-yl)-5-oxopentyl)guanidine Trihydrochloride] | > 6.00 |
| Cc1cccc2c(=O)[nH]c(CSC3CCN(C(=O)[C@@H](N)CCCCN)CC3)nc12 [Example 171, 2-(((1-(L-Lysyl)piperidin-4-yl)thio)methyl)-8-methylquinazolin-4(3H)-one Dihydrochloride] | > 6.00 |
| Cc1cccc2c(=O)[nH]c(CSC3CCN(C(=O)[C@H](N)CCCCN)CC3)nc12 [Example 172, 2-(((1-(D-Lysyl)piperidin-4-yl)thio)methyl)-8-methylquinazolin-4(3H)-one Dihydrochloride] | > 6.00 |
| Cc1cccc2c(=O)[nH]c(CSC3CCN(C(=O)CCc4ccccn4)CC3)nc12 [Example 173, 8-Methyl-2-(((1-(3-(pyridin-2-yl)propanoyl)piperidin-4-yl)thio)methyl) quinazolin-4(3H)-one] | 5.00 to 6.00 |
| Cc1cccc2c(=O)[nH]c(CSC3CCN(S(C)(=O)=O)CC3)nc12 [Example 174, 8-Methyl-2-(((1-(methylsulfonyl)piperidin-4-yl)thio)methyl)quinazolin-4(3H)-one] | > 6.00 |
| Cc1cccc2c(=O)[nH]c(CSC3CCN(S(=O)(=O)c4ccccn4)CC3)nc12 [Example 175, 8-Methyl-2-(((1-(pyridin-2-ylsulfonyl)piperidin-4-yl)thio)methyl)quinazolin-4(3H)-one] | 5.00 to 6.00 |
| O=c1[nH]c(CSC2CCNCC2)nc2cc(NC3CCCC3)cc(F)c12 [Example 176, 7-(Cyclopentylamino)-5-fluoro-2-((piperidin-4-ylthio)methyl)quinazolin-4(3H)-one Hydrochloride] | > 6.00 |
| O=c1[nH]c(CSC2CCNCC2)nc2cc(NC3CCC3)cc(F)c12 [Example 177, 7-(Cyclobutylamino)-5-fluoro-2-((piperidin-4-ylthio)methyl)quinazolin-4(3H)-one Hydrochloride] | > 6.00 |
| CC(=O)NC[C@H]1CC[C@H](SCc2nc3c(C)cccc3c(=O)[nH]2)CC1 [Example 178, N-(((trans)-4-(((8-methyl-4-oxo-3,4-dihydroquinazolin-2-yl)methyl)thio)cyclohexyl)methyl)acetamide] | 5.00 to 6.00 |
| O=c1[nH]c(CSC2CCNCC2)nc2cc(NC3CCCC3)ccc12 [Example 179, 7-(cyclopentylamino)-2-((piperidin-4-ylthio)methyl)quinazolin-4(3H)-one] | > 6.00 |
| O=c1[nH]c(CS[C@H]2CC[C@H](CO)CC2)nc2cc(NC3CCCC3)ccc12 [Example 180, 7-(cyclopentylamino)-2-((((1R,4R)-4-(hydroxymethyl)cyclohexyl)thio)methyl)quinazolin-4(3H)-one] | > 6.00 |
